Results reported in US8177896B2, “Antifouling furan-2-one derivatives” (The Hong Kong University of Science and Technology, priority 2008, dated 2012).
Converted amounts (≈) assume the structure as drawn. Read-outs that look alike come from different tables or passages of the source.

Legend:
[1] = system: Balanus amphitrite larvae; test: Larval settlement bioassay, barnacle Balanus amphitrite cyprids; type: in vivo; details: for concentration at which significant inhibition of larval settlement was observed / inhibition of larval settlement (in words): B. amphitrite; for concentration at which significant inhibition of larval settlement was observed: compared with controls; for toxicity rating from LC50/EC50 ratio: according to Avelin et al. 1993 and Rittschof et al. 1994, ratios for all tested larvae
Protocol: (§1) The nauplii were reared in freshly filtered nature seawater (FSW, 0.45 μm, 32 S salinity) and fed with Chaetoceros gracilis Schutt at 24° C. in the Coastal Marine Laboratory the Hong Kong University of Science and Technology (HKUST). Cyprids were stored for 2 days at 8° C. (aged cyprids) prior to being used in the bioassays. Ten μl of each test sample dissolved in dimethyl sulfoxide (DMSO) were transferred into a well in 24-well polystyrene plate after the addition of 1 ml of FSW. The control wells contained 1 ml of FSW and 10 μl of DMSO. About 15 cyprids were added in each well with triplicate samples being tested.

[2] = as above; type: in vivo; details: Balanus amphitrite (barnacle), cyprid larvae, in vivo, other: immersion, sample added to the seawater in the well
Protocol: as §1

Hydroides elegans larvae = test: Larval settlement bioassay, Hydroides elegans competent larvae; type: in vivo; details: for concentration at which significant inhibition of larval settlement was observed / inhibition of larval settlement (in words): H. elegans; for concentration at which significant inhibition of larval settlement was observed: compared with controls; for EC50: Hydroides elegans, 24 h, mean of at least three replicates, read-out: EC50 against larval settlement
Protocol: (§2) The 24-well plates were incubated at 28° C. for 24 h under a 15 h light/9 h dark photoperiod. The percentage of larval settlement and larval mortality was determined by counting the settled, live individuals under a dissecting microscope and expressing the result as a proportion of the total number of larvae in the well.

[3] = as above; type: in vivo; details: competent larvae, in vivo, other: immersion, sample added to the seawater in the well; Hydroides elegans; highest concentration examined causing <50% death of larvae
Protocol: as §2

Bugula neritina larvae = test: Larval settlement bioassay, Bugula neritina; details: for inhibition of larval settlement (in words): B. neritina
in vivo = details: Bugula neritina, larvae
[4] = Degradation in buffer solutions and seawater; type: physicochemical
[5] = Amphibalanus amphitrite, Table 3, Balanus amphitrite larvae, value ± spread, read-out: EC50
[6] = Table 3, Balanus amphitrite larvae
[7] = Amphibalanus amphitrite, 24 h, Balanus amphitrite, 24 h, mean of at least three replicates, read-out: EC50 against larval settlement
[8] = Balanus amphitrite, highest concentration examined causing <50% death of larvae
[9] = Table 3, Balanus amphitrite larvae, value ± spread

CC(O)C(C)(O)CCCC1C=CC(=O)O1 (single isomer, unassigned) [Compound 11]
EC50 [1, 5]: > 100 µg/mL
LC50 at 24 h [2, 6]: > 100 µg/mL

CCC(C)(O)CCCCCC1C=CC(=O)O1 (centres unmarked) [Compound 1]
EC50 [1, 7]: 14.8 µg/mL (≈ 65.4 µM)
EC50 [1, 5]: 14.8 ± 5.54 µg/mL (≈ 65.4 µM)
concentration at which significant inhibition of larval settlement was observed [1]: 10 µg/mL
LC50 at 24 h [2, 8]: > 100 µg/mL
LC50 at 24 h [2, 6]: > 100 µg/mL
concentration at which significant inhibition of larval settlement was observed (Hydroides elegans larvae): 10 µg/mL
EC50 (Hydroides elegans larvae): 12 µg/mL (≈ 53 µM)
LC50 at 24 h [3]: > 100 µg/mL

CC(O)C(C)CCCCCC1C=CC(=O)O1 (centres unmarked) [Compound 2]
EC50 [1, 7]: 9.65 µg/mL (≈ 42.6 µM)
EC50 [1, 5]: 9.65 ± 1.5 µg/mL (≈ 42.6 µM)
concentration at which significant inhibition of larval settlement was observed [1]: 10 µg/mL
LC50 at 24 h [2, 8]: > 100 µg/mL
LC50 at 24 h [2, 6]: > 100 µg/mL
concentration at which significant inhibition of larval settlement was observed (Hydroides elegans larvae): 5 µg/mL
EC50 (Hydroides elegans larvae): 4.4 µg/mL (≈ 19.4 µM)
LC50 at 24 h [3]: > 100 µg/mL

CC(=O)C(C)CCCCCC1C=CC(=O)O1 (centres unmarked) [Compound 3]
EC50 [1, 7]: 8.67 µg/mL (≈ 38.7 µM)
EC50 [1, 5]: 8.67 ± 2.73 µg/mL (≈ 38.7 µM)
concentration at which significant inhibition of larval settlement was observed [1]: 25 µg/mL
LC50 at 24 h [2, 8]: > 100 µg/mL
LC50 at 24 h [2, 6]: > 100 µg/mL
concentration at which significant inhibition of larval settlement was observed (Hydroides elegans larvae): 5 µg/mL
EC50 (Hydroides elegans larvae): 5.6 µg/mL (≈ 25 µM)
LC50 at 24 h [3]: > 100 µg/mL

CC(C)(O)CCCCCC1C=CC(=O)O1 (centres unmarked) [Compound 4]
EC50 [1, 7]: > 100 µg/mL
EC50 [1, 5]: > 100 µg/mL
inhibition of larval settlement (in words) [1]: efficient against the larval settlements especially for B. amphitrite
LC50 at 24 h [2, 8]: > 140 µg/mL
LC50 at 24 h [2, 6]: > 140 µg/mL
concentration at which significant inhibition of larval settlement was observed (Hydroides elegans larvae): 8 µg/mL
EC50 (Hydroides elegans larvae): 12.7 µg/mL (≈ 59.8 µM)
LC50 at 24 h [3]: > 40 µg/mL

CC(CCCCCC1C=CC(=O)O1)C(C)OC1CCCCO1 (centres unmarked) [Compound 5]
inhibition of larval settlement (in words) (Bugula neritina larvae): distinct inhibition effects
EC50 [1, 7]: 3.6 µg/mL (≈ 11.6 µM)
EC50 [1, 5]: 3.6 ± 0.56 µg/mL (≈ 11.6 µM)
inhibition of larval settlement (in words) [1]: distinct inhibition effects
toxicity rating from LC50/EC50 ratio [1]: nontoxic or low toxic compound
LC50 at 24 h [2, 8]: > 80 µg/mL
LC50 at 24 h [2, 6]: > 80 µg/mL
inhibition of larval settlement (in words) (Hydroides elegans larvae): distinct inhibition effects
EC50 (Hydroides elegans larvae): 6.4 µg/mL (≈ 20.6 µM)
LC50 at 24 h [3]: > 100 µg/mL

CCCCCCCCC1C=CC(=O)O1 (centres unmarked) [Compound 6, 5-octylfuran-2-one]
inhibition of larval settlement (in words) (Bugula neritina larvae): distinct inhibition effects
EC50 against larval settlement (Bugula neritina larvae; Bugula neritina, mean of at least three replicates): 0.2 µg/mL (≈ 1.02 µM)
LC50 (in vivo): > 50 µg/mL
degradation in natural seawater [4]: can be easily degradated in natural seawater
EC50 [1, 7]: 0.52 µg/mL (≈ 2.65 µM)
EC50 [1, 5]: 0.52 ± 0.06 µg/mL (≈ 2.65 µM)
inhibition of larval settlement (in words) [1]: distinct inhibition effects
toxicity rating from LC50/EC50 ratio [1]: nontoxic or low toxic compound
LC50 at 24 h [2, 8]: > 50 µg/mL
LC50 at 24 h [2, 6]: > 50 µg/mL
inhibition of larval settlement (in words) (Hydroides elegans larvae): distinct inhibition effects
EC50 (Hydroides elegans larvae): 0.017 µg/mL (≈ 0.0866 µM)
LC50 at 24 h [3]: > 2 µg/mL

CC(O)C(C)(O)CCCC1C=CC(=O)O1 (centres unmarked) [Compound 7]
LC50 [1, 6]: >25 µg/mL
EC50 [1, 9]: 4.82 ± 1.25 µg/mL (≈ 22.5 µM)

CC(O)C(C)(O)CCCC1C=CC(=O)O1 (centres unmarked) [Compound 8]
LC50 [1, 6]: >100 µg/mL
EC50 [1, 9]: >100 µg/mL

CC(O)C(C)(O)CCCC1C=CC(=O)O1 (centres unmarked) [Compound 9]
LC50 [1, 6]: >100 µg/mL
EC50 [1, 9]: >100 µg/mL

CC(O)C(C)(O)CCCC1C=CC(=O)O1 (centres unmarked) [Compound 10]
LC50 [1, 6]: >100 µg/mL
EC50 [1, 9]: >100 µg/mL
